The source of these data is patent US20100168125A1, “INDOLIZINES AND AZA-ANALOG DERIVATIVES THEREOF AS CNS ACTIVE COMPOUNDS” (priority 2007, published 2010).

The target of data set [1] is T1, 5-HT2 receptor (Sus scrofa, UniProt P50129).
T1 construct: membrane preparations from porcine cortical material; from tissue; host or cells: porcine cerebral cortex membranes
Nature of the data set: radioligand binding, porcine cortical membranes, [^3H]ketanserin. The note with it: porcine cortical membranes, [^3H]ketanserin.

Data set [2] has as its target T2, human D3 receptor (Homo sapiens, UniProt P35462).
T2 construct: expressed in transfected cells; host or cells: Chinese hamster ovary (CHO) cells, membranes
Nature of the data set: radioligand binding with [^3H]spiperone, D3. The note with it: [^3H]spiperone, CHO membranes, mean of 2 to 4 experiments. The protocol:
(§1) For the determination of binding affinity to the receptors of the dopamine D2 family membranes were established carrying the human D2long, D2short, D3 or D4.4 receptor subtype expressed in Chinese hamster ovary cell lines. In principle, the binding experiments started when incubating an appropriate amount of membrane with the radioligand [^3H]spiperone and the particular test compounds diluted in a wide range of different concentrations from subnanomolar up to micromolar.

Data set [3] concerns the target T3, human D4.4 receptor (Homo sapiens, UniProt P21917).
T3 construct: expressed in transfected cells; host or cells: Chinese hamster ovary (CHO) cells, membranes
T3 sequence (P21917 1-419): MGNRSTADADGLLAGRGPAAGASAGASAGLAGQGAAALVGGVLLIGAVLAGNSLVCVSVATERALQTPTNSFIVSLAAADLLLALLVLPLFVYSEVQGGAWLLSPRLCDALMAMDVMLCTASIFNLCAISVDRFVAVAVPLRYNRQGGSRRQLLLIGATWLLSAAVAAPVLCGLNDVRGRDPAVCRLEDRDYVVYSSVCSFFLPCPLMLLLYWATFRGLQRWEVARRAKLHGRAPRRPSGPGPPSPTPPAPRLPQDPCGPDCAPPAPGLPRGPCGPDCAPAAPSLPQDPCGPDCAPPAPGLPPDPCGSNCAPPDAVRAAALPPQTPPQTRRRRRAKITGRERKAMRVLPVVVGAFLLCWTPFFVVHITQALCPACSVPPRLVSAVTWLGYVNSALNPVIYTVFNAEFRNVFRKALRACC
Nature of the data set: radioligand binding with [^3H]spiperone, D4.4. To be noted: [^3H]spiperone, CHO membranes, mean of 2 to 4 experiments. The protocol: as §1

Data set [4] deals with T4, 5-HT1A receptor (Sus scrofa, UniProt A0A4X1UTF5).
T4 construct: membrane preparations from porcine cortical material; from tissue; host or cells: porcine cerebral cortex membranes
T4 sequence (A0A4X1UTF5 1-422): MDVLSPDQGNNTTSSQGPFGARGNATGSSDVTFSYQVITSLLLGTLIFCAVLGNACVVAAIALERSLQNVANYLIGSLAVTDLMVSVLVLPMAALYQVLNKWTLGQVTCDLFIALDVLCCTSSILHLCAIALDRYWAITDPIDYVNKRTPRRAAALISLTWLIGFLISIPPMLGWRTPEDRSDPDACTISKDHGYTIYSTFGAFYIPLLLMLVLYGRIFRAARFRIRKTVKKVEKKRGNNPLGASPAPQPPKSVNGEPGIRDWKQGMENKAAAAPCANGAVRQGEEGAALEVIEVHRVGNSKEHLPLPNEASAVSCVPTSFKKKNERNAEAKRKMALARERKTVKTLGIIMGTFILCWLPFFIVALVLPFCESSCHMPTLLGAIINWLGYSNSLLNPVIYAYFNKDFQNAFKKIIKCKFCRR
The data set is described as follows: radioligand binding, porcine cortical membranes, [^3H]8-OH-DPAT and [^3H]WAY 100635. To be noted: porcine cortical membranes.

For data set [5], the target named is T5, human D2long receptor (Homo sapiens, UniProt P14416).
T5 construct: expressed in transfected cells; host or cells: Chinese hamster ovary (CHO) cells, membranes
The data set is described as follows: radioligand binding with [^3H]spiperone, D2long. To be noted: [^3H]spiperone, CHO membranes, mean of 2 to 4 experiments; read-out: Ki D2lo. The protocol:
as §1

Data set [6] has as its target T6, human D2short receptor (Homo sapiens, UniProt P14416).
T6 construct: expressed in transfected cells; host or cells: Chinese hamster ovary (CHO) cells, membranes
Nature of the data set: radioligand binding with [^3H]spiperone, D2short. To be noted: [^3H]spiperone, CHO membranes, mean of 2 to 4 experiments; read-out: Ki D2sh. The protocol:
as §1

Data set [7] addresses dopamine D2short receptor (Homo sapiens, UniProt P14416). Nature of the data set: [^35S]GTPγS-incorporation assay, intrinsic activity.
The mark [8] stands for this setting: read-out: D2short: [^35S]GTPγS intrinsic activity, % activity of quinpirol.

Each structure is given as a SMILES string. Read-outs that look alike come from different tables or passages of the source.

T5 sequence (P14416 whole entry): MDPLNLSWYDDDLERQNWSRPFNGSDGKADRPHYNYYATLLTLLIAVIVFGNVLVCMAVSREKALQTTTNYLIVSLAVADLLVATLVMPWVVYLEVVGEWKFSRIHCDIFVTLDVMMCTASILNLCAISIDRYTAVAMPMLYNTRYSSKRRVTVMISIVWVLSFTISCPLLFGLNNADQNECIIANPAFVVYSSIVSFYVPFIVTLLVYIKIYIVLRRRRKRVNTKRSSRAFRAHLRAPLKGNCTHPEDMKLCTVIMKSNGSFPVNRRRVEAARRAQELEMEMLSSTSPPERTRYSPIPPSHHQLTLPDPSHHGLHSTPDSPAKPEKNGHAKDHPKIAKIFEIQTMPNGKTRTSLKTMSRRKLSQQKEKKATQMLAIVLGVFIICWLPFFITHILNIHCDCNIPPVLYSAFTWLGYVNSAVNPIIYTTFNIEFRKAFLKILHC
T1 sequence (P50129 whole entry): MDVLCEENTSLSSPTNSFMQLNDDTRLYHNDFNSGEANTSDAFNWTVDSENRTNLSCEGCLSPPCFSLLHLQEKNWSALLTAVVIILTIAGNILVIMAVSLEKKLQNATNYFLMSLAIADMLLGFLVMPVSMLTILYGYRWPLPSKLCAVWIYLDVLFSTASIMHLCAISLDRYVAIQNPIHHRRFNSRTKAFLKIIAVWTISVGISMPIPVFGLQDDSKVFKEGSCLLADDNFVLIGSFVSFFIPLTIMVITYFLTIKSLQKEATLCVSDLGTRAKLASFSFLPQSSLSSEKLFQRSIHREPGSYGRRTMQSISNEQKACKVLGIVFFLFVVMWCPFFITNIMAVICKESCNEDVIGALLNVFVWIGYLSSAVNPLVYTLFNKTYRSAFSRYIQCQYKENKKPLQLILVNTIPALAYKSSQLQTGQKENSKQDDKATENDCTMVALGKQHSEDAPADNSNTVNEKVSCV
T6 sequence (P14416 1-414 isoform P14416-2): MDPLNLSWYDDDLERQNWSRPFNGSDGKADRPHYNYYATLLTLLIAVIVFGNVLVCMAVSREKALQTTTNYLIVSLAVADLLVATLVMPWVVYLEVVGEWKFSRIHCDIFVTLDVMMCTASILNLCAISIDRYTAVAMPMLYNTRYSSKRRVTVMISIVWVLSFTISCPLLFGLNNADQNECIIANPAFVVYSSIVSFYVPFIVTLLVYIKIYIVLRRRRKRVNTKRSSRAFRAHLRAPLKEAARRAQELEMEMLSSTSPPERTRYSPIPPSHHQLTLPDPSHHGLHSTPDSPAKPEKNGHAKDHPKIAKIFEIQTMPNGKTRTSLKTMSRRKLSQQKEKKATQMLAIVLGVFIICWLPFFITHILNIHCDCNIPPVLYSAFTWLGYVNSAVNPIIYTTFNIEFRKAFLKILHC
Sequence of dopamine D2short receptor (P14416 1-414 isoform P14416-2): as above
T2 sequence (P35462 whole entry): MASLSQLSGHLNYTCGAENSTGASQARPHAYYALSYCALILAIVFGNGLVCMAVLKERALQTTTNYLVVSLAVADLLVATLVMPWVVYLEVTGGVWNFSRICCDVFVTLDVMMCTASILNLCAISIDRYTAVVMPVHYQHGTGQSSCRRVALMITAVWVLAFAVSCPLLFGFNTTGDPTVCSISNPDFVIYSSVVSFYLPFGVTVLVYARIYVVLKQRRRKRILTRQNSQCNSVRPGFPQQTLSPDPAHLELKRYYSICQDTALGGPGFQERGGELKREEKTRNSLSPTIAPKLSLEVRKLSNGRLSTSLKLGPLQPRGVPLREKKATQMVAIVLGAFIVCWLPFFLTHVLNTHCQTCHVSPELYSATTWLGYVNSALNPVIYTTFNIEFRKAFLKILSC

`ON=Cc1cnn2ccc(OCCCCN3CCN(c4ccccc4Cl)CC3)cc12` [Example E35, (s-cis) 5-[4-[4-(2-Chlorophenyl)piperazin-1-yl]butoxy]pyrazolo[1,5-a]pyridine-3-carbaldehyde oxime] gave a melting point of 160 °C. Further, the Ki in data set [1] is 0.03 to 0.3 µM. In addition, the inhibition constant (Ki) in data set [2] was < 0.03 µM. The Ki in data set [3] was < 0.03 µM. The inhibition constant (Ki) in data set [4] is < 0.03 µM. Further, in data set [5], the Ki is < 0.03 µM. Besides, in data set [6], the Ki is < 0.03 µM. For the same molecule, the “D2short: [^35S]GTPγS intrinsic activity” value in data set [7] (% activity of quinpirol) is recorded as “A (A=Full antagonist (<15%))”.
Molecule `COc1ccc(N2CCN(CCCCOc3ccn4ncc(C=O)c4c3)CC2)cc1` [Example E24, 5-[4-[4-(4-Methoxyphenyl)piperazin-1-yl]butoxy]pyrazolo[1,5-a]pyridine-3-carbaldehyde] showed a melting point of 114 °C. Further, the Ki in data set [1] is > 3 µM. In data set [2], this molecule showed a Ki of 0.301 to 3 µM. This molecule displayed a Ki in data set [3] of 0.301 to 3 µM. Moreover, the Ki in data set [4] was in the range of 0.03 to 0.3 µM. Also, in data set [5], the Ki lay in the range of 0.03 to 0.3 µM. Also, the inhibitory constant (Ki) in data set [6] lay in the range of 0.03 to 0.3 µM. Also, the Emax in data set [7] (setting [8]) is < 15%.
The molecule `O=Cc1cnn2ccc(OCCCCN3CCN(c4ccc(O)cc4)CC3)cc12` [Example E26, 5-[4-[4-(4-Hydroxyphenyl)piperazin-1-yl]butoxy]pyrazolo[1,5-a]pyridine-3-carbaldehyde] registered a melting point of 164 °C. The same molecule gave a Ki in data set [1] of 0.301 to 3 µM. In data set [2], the Ki is 0.03 to 0.3 µM. For the same molecule, the Ki in data set [3] lay within 0.03 to 0.3 µM. This molecule also displayed an inhibitory constant (Ki) in data set [4] of 0.03 to 0.3 µM. For the same molecule, the Ki in data set [5] is 0.03 to 0.3 µM. Further, the Ki in data set [6] was < 0.03 µM. Moreover, the Emax in data set [7] (setting [8]) lay in the range of 40 to 75%.
For the molecule `Clc1cccc(N2CCN(CCCCOc3ccc4ccnn4c3)CC2)c1Cl` [Example E51, 6-[4-[4-(2,3-Dichlorophenyl)piperazin-1-yl]butoxy]pyrazolo[1,5-a]pyridine], the melting point is 97 °C. Moreover, the Ki in data set [1] was in the range of 0.03 to 0.3 µM. The Ki in data set [2] is < 0.03 µM. Further, the Ki in data set [3] was < 0.03 µM. In data set [4], this molecule gave a Ki of 0.03 to 0.3 µM. In addition, the Ki in data set [5] is < 0.03 µM. For the same molecule, in data set [6], the Ki was < 0.03 µM. Also, the Emax in data set [7] (setting [8]) is < 15%.
Molecule `O=Cc1cnn2ccc(OCCCCN3CCN(c4ccc(Cl)cc4)CC3)cc12` [Example E25] registered a melting point of 113 °C. For the same molecule, the Ki in data set [1] was 0.301 to 3 µM. This molecule gave a Ki in data set [2] of 0.03 to 0.3 µM. The Ki in data set [3] lay within 0.03 to 0.3 µM. The molecule also had a Ki in data set [4] of 0.03 to 0.3 µM. In addition, the inhibition constant Ki in data set [5] is < 0.03 µM. The Ki in data set [6] was < 0.03 µM. Moreover, the Emax in data set [7] (setting [8]) fell in the range of 15 to 40%.
`COc1ccccc1N1CCN(CCCCOc2nn3ccccc3c2C=O)CC1` [Example E5, 2-[4-[4-(2-Methoxyphenyl)piperazin-1-yl]butoxy]pyrazolo[1,5-a]pyridine-3-carbaldehyde]: the melting point came to 101 °C. Also, the Ki in data set [1] is 0.301 to 3 µM. Moreover, the Ki in data set [2] was < 0.03 µM. In addition, the Ki in data set [3] is < 0.03 µM. Also, the Ki in data set [4] was < 0.03 µM. Besides, the Ki in data set [5] was < 0.03 µM. Further, the Ki in data set [6] is < 0.03 µM. Moreover, the Emax in data set [7] (read-out: D2short: [^35S]GTPγS intrinsic activity) was 15 to 40%.
For the molecule `O=Cc1cnn2ccc(COCCCN3CCN(c4cccc(Cl)c4Cl)CC3)cc12` [Example E14, 5-[3-[4-(2,3-Dichlorophenyl)piperazin-1-yl]propoxymethyl]pyrazolo[1,5-a]pyridine-3-carbaldehyde], the melting point came out at 90 °C. This molecule also displayed a Ki in data set [1] of 0.03 to 0.3 µM. Also, in data set [2], the inhibition constant (Ki) is < 0.03 µM. In data set [3], this molecule had an inhibition constant (Ki) of 0.03 to 0.3 µM. In data set [4], the Ki is < 0.03 µM. Besides, the Ki in data set [5] was < 0.03 µM. Besides, in data set [6], the Ki is < 0.03 µM. In data set [7] (setting [8]), the Emax lay within 15 to 40%.
`COc1ccccc1N1CCN(CCCCOc2cccn3ncc(C=O)c23)CC1` [Example E11, 4-[4-[4-(2-Methoxyphenyl)piperazin-1-yl]butoxy]pyrazolo[1,5-a]pyridine-3-carbaldehyde] returned a melting point of 139 °C. In data set [1], this molecule showed a Ki of 0.301 to 3 µM. The same molecule gave a Ki in data set [2] of 0.03 to 0.3 µM. Also, in data set [3], the Ki was < 0.03 µM. Moreover, the inhibitory constant (Ki) in data set [4] was < 0.03 µM. In addition, the Ki in data set [5] was < 0.03 µM. For the same molecule, the Ki in data set [6] is < 0.03 µM. Besides, the Emax in data set [7] (setting [8]) is < 15%.

In general, Ki refers to the equilibrium dissociation constant of an inhibitor or competing ligand from its target. For orientation: melting point means the temperature of the solid-liquid transition.
